Results published in patent US20230021483A1, “[…] […] METHOD AND CLASSIFICATION OF PHARMACEUTICAL COMPONENTS BY USING TRANSCRIPTOMES” (National Institutes of Biomedical Innovation, Health and …, priority 2016, published 2023).
Several values for one entry are separate records, joined by “and”; a condition that tells them apart may be missing. Identical values can stand only once.

Legend:
Format in all cases: in vivo, C57BL/6 mice
liver (LV) = test: Whole organ transcriptome (GeneChip microarray) of liver 6 h after adjuvant administration: sDEGs, hierarchical clustering; as to cluster of strongly responding individual samples in LV (clustering exceptions): key: G1 (interferon signaling); G2 (metabolism of lipids and lipoproteins); G3 (response to stress); G4 (response to wounding); G5 (phosphate-containing compound metabolic process); G6 (phagosome)
[1] = system: inguinal lymph nodes (LN); test: Whole organ transcriptome (GeneChip microarray) of draining inguinal lymph nodes 6 h after adjuvant administration: sDEGs, gene modules, hierarchical clustering; conditions: lymph node; as to adjuvant group (cluster) in LN: key: G1 (interferon signaling); G2 (metabolism of lipids and lipoproteins); G3 (response to stress); G4 (response to wounding); G5 (phosphate-containing compound metabolic process); G6 (phagosome)
spleen (SP) = test: Whole organ transcriptome (GeneChip microarray) of spleen 6 h after adjuvant administration: sDEGs, hierarchical clustering; conditions: i.d. administration
[2] = system: preferentially upregulated genes in LV, SP, LN; test: Z-score-based differential gene expression analysis (adjuvant group- or adjuvant-associated genes, 40 module mapping, TargetMine annotation)
Outline: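 Per-sample fold-change values converted to gene-wise z-scores within each organ's data set, then triplicate z-scores summed per adjuvant. Genes with summed score >3 taken as preferentially expressed; gene groups defined by combined per-adjuvant z-score thresholds (z>1 to z>3) specific to each organ.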

[3] = ID, LN, samples x1-x3, Module#(LN) 40
[4] = liver (LV), gene group G1, module 20, individual mice x1-x3, route ID/IP/IN

With “D35: A class CpG ODN (5′-GGTGCATCGATGCAGGGGGG-3′), TLR9 ligand (DNA GGTGCATCGATGCAGGGGGG; chemistry not given here)” the “Number of gene probes with statistically significant changes (sDEGs), LV, Down” value (liver (LV); i.d. administration, liver, fold change <0.667, p<0.01, customized PA call=1, 6 h after adjuvant) was 36, the “Number of gene probes with statistically significant changes (sDEGs), LV, Up” value (liver (LV); i.d. administration, liver, fold change >1.5, p<0.01, customized PA call=1, 6 h after adjuvant) was 15 and the “cluster of strongly responding individual samples in LV (clustering exceptions)” value (liver (LV); samples D35_ID_x2 and K3_ID_x3 only) was “G2”. The “adjuvant group (cluster) in LN” value ([1]; hierarchical clustering) was “G5”, the “Number of gene probes with statistically significant changes (sDEGs), LN, Down” value ([1]; i.d. administration, fold change <0.667, p<0.01, customized PA call=1, 6 h after adjuvant) was 12 and the “Number of gene probes with statistically significant changes (sDEGs), LN, Up” value ([1]; i.d. administration, fold change >1.5, p<0.01, customized PA call=1, 6 h after adjuvant) was 69. The “Number of gene probes with statistically significant changes (sDEGs), SP, Down” value (spleen (SP); fold change <0.667, p<0.01, customized PA call=1, 6 h after adjuvant) was 19, the “Number of gene probes with statistically significant changes (sDEGs), SP, Up” value (spleen (SP); fold change >1.5, p<0.01, customized PA call=1, 6 h after adjuvant) was 23 and the “z sum, 1444615_x_at Runx1t1” value ([2]; ID, LN, Module#(LN) 1) was 3.519. For the same substance, the “z sum, 1420894_at Tgfbr1” value ([2]; ID, LN, Module#(LN) 3) was 3.333, the “z sum, 1460069_at Smc6” value ([2]; ID, LN, Module#(LN) 7) was 3.274 and the “z sum, 1440371_at ---” value ([2]; ID, LN, Module#(LN) 8) was 3.29. The “z sum, 1456346_at ---” value ([2]; ID, LN, Module#(LN) 9) was 3.455, the “z sum, 1425105_at Rbp3” value ([2]; ID, LN, Module#(LN) 10) was 3.333 and the “z sum, 1455796_x_at Olfm1” value ([2]; ID, LN, Module#(LN) 11) was 3.262. The “z sum, 1443302_at ---” value ([2]; ID, LN, Module#(LN) 12) was 3.407, the “z sum, 1442518_at C030044O21Rik” value ([2]; ID, LN, Module#(LN) 14) was 3.546 and the “z sum, 1419486_at Foxc1” value ([2]; ID, LN, Module#(LN) 19) was 3.344. For the same substance, the “z sum, 1441344_at Erlin1” value ([2]; ID, LN, Module#(LN) 21) was 3.171, the “z sum, 1423611_at Alpl” value ([2]; ID, LN, Module#(LN) 24) was 3.194 and the “z sum, 1448179_at Usmg5” value ([2]; ID, LN, Module#(LN) 24) was 3.461. For the same substance, the “z sum, 1458457_at ---” value ([2]; ID, LN, Module#(LN) 26) was 3.147, the “z sum, 1450377_at Thbs1” value ([2]; ID, LN, Module#(LN) 28) was 3.002 and the “z sum, 1443853_x_at Sfmbt1” value ([2]; ID, LN, Module#(LN) 32) was 3.51. The “z sum, 1443392_at Trpv1” value ([2]; ID, LN, Module#(LN) 33) was 3.184, the “z sum, 1440475_at AW011738” value ([2]; ID, LN, Module#(LN) 36) was 3.038 and the “z sum, 1416380_at Mov10” value ([2]; ID, LN, Module#(LN) 37) was 3.277. For the same substance, the “z sum, 1421008_at Rsad2” value ([2]; ID, LN, Module#(LN) 37) was 3.221, the “z sum, 1421009_at Rsad2” value ([2]; ID, LN, Module#(LN) 37) was 3.209 and the “z sum, 1424339_at Oasl1” value ([2]; ID, LN, Module#(LN) 37) was 3.198. For the same substance, the “z sum, 1426013_s_at Plekha4” value ([2]; ID, LN, Module#(LN) 37) was 3.228, the “z sum, 1436058_at Rsad2” value ([2]; ID, LN, Module#(LN) 37) was 3.281 and the “z sum, 1436472_at Slfn9” value ([2]; ID, LN, Module#(LN) 37) was 3.595. For the same substance, the “z sum, 1447241_at ---” value ([2]; ID, LN, Module#(LN) 37) was 3.033, the “z sum, 1416039_x_at Cyr61” value ([2]; ID, LN, Module#(LN) 39) was 3.015 and the “z sum, 1418191_at Usp18” value ([2]; ID, LN, Module#(LN) 40) was 3.035. The “z sum, 1418293_at Ifit2” value ([2]; ID, LN, Module#(LN) 40) was 3.02, the “z sum, 1418580_at Rtp4” value ([2]; ID, LN, Module#(LN) 40) was 3.028 and the “z sum, 1419603_at Ifi204” value ([2]; ID, LN, Module#(LN) 40) was 3.659. The “z sum, 1421911_at Stat2” value ([2]; ID, LN, Module#(LN) 40) was 3.137, the “z sum, 1422006_at Eif2ak2” value ([2]; ID, LN, Module#(LN) 40) was 3.279 and the “z sum, 1422141_s_at Csprs///Gm15433///Gm2666///Gm7609///LOC100041903///LOC100503923” value ([2]; ID, LN, Module#(LN) 40) was 3.074. The “z sum, 1423555_a_at Ifi44” value ([2]; ID, LN, Module#(LN) 40) was 3.551, the “z sum, 1424444_a_at 1600014C10Rik” value ([2]; ID, LN, Module#(LN) 40) was 3.108 and the “z sum, 1424607_a_at Gm4354” value ([2]; ID, LN, Module#(LN) 40) was 3.422. For the same substance, the “z sum, 1424609_a_at Cwc22///Gm4354///Xdh” value ([2]; ID, LN, Module#(LN) 40) was 3.429, the “z sum, 1431095_a_at Herc6” value ([2]; ID, LN, Module#(LN) 40) was 3.065 and the “z sum, 1432417_a_at Tspan2” value ([2]; ID, LN, Module#(LN) 40) was 3.906. The “z sum, 1439886_at ---” value ([2]; ID, LN, Module#(LN) 40) was 3.151, the “z sum, 1450403_at Stat2” value ([2]; ID, LN, Module#(LN) 40) was 3.389 and the “z sum, 1451777_at Ddx60” value ([2]; ID, LN, Module#(LN) 40) was 3.02. The “z sum, 1452349_x_at Ifi205///Mnda” value ([2]; ID, LN, Module#(LN) 40) was 3.123, the “z sum, 1453196_a_at Oasl2” value ([2]; ID, LN, Module#(LN) 40) was 3.123 and the “z sum, 1453299_a_at Pnp///Pnp2” value ([2]; ID, LN, Module#(LN) 40) was 3.12. For the same substance, the “z sum, 1453757_at Herc6” value ([2]; ID, LN, Module#(LN) 40) was 3.183, the “z sum, 1456164_at AW011738” value ([2]; ID, LN, Module#(LN) 40) was 3.347 and the “z sum, 1457035_at Al607873” value ([2]; ID, LN, Module#(LN) 40) was 3.377. For the same substance, the “z-score of fold change, 1460069_at Smc6” value ([2]; ID, LN, samples x1-x3, Module#(LN) 7) was 0.716 and 1.173 and 1.385, the “z-score of fold change, 1442518_at C030044O21Rik” value ([2]; ID, LN, samples x1-x3, Module#(LN) 14) was 0.953 and 1.161 and 1.432 and the “z-score of fold change, 1423611_at Alpl” value ([2]; ID, LN, samples x1-x3, Module#(LN) 24) was 0.707 and 1.244. The “z-score of fold change, 1436472_at Slfn9” value ([2]; ID, LN, samples x1-x3, Module#(LN) 37) was 1.143 and 1.047 and 1.405, the “z-score of fold change, 1419603_at Ifi204” value [2, 3] was 1.185 and 1.269 and 1.205 and the “z-score of fold change, 1422006_at Eif2ak2” value [2, 3] was 1.174 and 1.037 and 1.068. For the same substance, the “z-score of fold change, 1424607_a_at Gm4354” value [2, 3] was 1.005 and 1.314 and 1.103, the “z-score of fold change, 1424609_a_at Cwc22///Gm4354///Xdh” value [2, 3] was 1.178 and 1.294 and 0.958 and the “z-score of fold change, 1432417_a_at Tspan2” value [2, 3] was 1.133 and 1.404 and 1.369. The “z-score of fold change, 1451777_at Ddx60” value [2, 3] was 0.83 and 1.215 and 0.975, the “z-score of fold change, 1457035_at Al607873” value [2, 3] was 0.908 and 1.231 and 1.239 and the “interferon induction relative to adjuvants targeting the same receptor” value ([2]; LN, z-scores and 40 module mapping) was “relatively stronger interferon inducer than K3 or K3SPG”. The “Z score of gene expression, Adar (probe 1425405_a_at)” value [2, 4] was −0.1 and −0.3 (2×), the “Z score of gene expression, Adar (probe 1434268_at)” value [2, 4] was −0.3 (2×) and −0.4 and the “Z score of gene expression, Ddx58 (probe 1436562_at)” value [2, 4] was −0.4 (2×) and −0.1. For the same substance, the “Z score of gene expression, Ddx58 (probe 1456890_at)” value [2, 4] was −0.3 (2×) and −0.4, the “Z score of gene expression, Eif2ak2 (probe 1422005_at)” value [2, 4] was −0.5 and −0.4 (2×) and the “Z score of gene expression, G3bp2 (probe 1421323_a_at)” value [2, 4] was −0.5 and −0.4 (2×). The “Z score of gene expression, Gm9706///Isg15 (probe 1431591_s_at)” value [2, 4] was −0.5, the “Z score of gene expression, H2-T10///H2-T22///H2-T9 (probe 1449875_s_at)” value [2, 4] was −0.4 and −0.3 and −0.2 and the “Z score of gene expression, Ifih1 (probe 1426276_at)” value [2, 4] was −0.5 (2×) and −0.3. For the same substance, the “Z score of gene expression, Ifit1 (probe 1449025_at)” value [2, 4] was −0.5, the “Z score of gene expression, Ifit1 (probe 1450783_at)” value [2, 4] was −0.5 and −0.4 (2×) and the “Z score of gene expression, Irf7 (probe 1417244_a_at)” value [2, 4] was −0.3 (2×) and −0.2. The “Z score of gene expression, Irgm1 (probe 1418825_at)” value [2, 4] was −0.5 (2×) and −0.3, the “Z score of gene expression, Mndal (probe 1426906_at)” value [2, 4] was −0.5 and −0.4 and −0.3 and the “Z score of gene expression, Pml (probe 1448757_at)” value [2, 4] was −0.7 and −0.4 and −0.3. The “Z score of gene expression, Pml (probe 1456103_at)” value [2, 4] was −0.4 and −0.3 (2×), the “Z score of gene expression, Rnf213 (probe 1455500_at)” value [2, 4] was −0.4 and the “Z score of gene expression, Rsad2 (probe 1436058_at)” value [2, 4] was −0.5. For the same substance, the “Z score of gene expression, Shisa5 (probe 1423986_a_at)” value [2, 4] was −0.5 and −0.6 and −0, the “Z score of gene expression, Shisa5 (probe 1437503_a_at)” value [2, 4] was −0.4 (2×) and 0.15 and the “Z score of gene expression, Stat1 (probe 1450033_a_at)” value [2, 4] was −0.5 (2×) and −0.4. The “Z score of gene expression, Stat1 (probe 1450034_at)” value [2, 4] was −0.5, the “Z score of gene expression, Tdrd7 (probe 1426716_at)” value [2, 4] was −0.4 (2×) and −0.1 and the “Z score of gene expression, Tor1aip2 (probe 1418115_s_at)” value [2, 4] was −0.4 and −0.6 and −0.1. The “Z score of gene expression, Tor1aip2 (probe 1418116_at)” value [2, 4] was −0.4 and −0.5 and −0.2, the “Z score of gene expression, Tor1aip2 (probe 1435526_at)” value [2, 4] was −0.4 (2×) and −0.5 and the “Z score of gene expression, Trim12a (probe 1437432_a_at)” value [2, 4] was −0.4 (2×) and −0.5. The “Z score of gene expression, Uba7 (probe 1426970_a_at)” value [2, 4] was −0.8 and −0.6 and −0.5.
